Active and inactive are the calls of the source.
How the values were obtained:
[1] = viability of uninfected HEp-2 cells – cell-based, HTS, cytotoxicity control for RSV inhibitor project, dose response (AID 2410); format: functional; settings: human respiratory syncytial virus
[2] = molecular target: T1, Protein skinhead-1 (Caenorhabditis elegans, UniProt P34707); format: functional
T1 sequence (P34707 whole entry): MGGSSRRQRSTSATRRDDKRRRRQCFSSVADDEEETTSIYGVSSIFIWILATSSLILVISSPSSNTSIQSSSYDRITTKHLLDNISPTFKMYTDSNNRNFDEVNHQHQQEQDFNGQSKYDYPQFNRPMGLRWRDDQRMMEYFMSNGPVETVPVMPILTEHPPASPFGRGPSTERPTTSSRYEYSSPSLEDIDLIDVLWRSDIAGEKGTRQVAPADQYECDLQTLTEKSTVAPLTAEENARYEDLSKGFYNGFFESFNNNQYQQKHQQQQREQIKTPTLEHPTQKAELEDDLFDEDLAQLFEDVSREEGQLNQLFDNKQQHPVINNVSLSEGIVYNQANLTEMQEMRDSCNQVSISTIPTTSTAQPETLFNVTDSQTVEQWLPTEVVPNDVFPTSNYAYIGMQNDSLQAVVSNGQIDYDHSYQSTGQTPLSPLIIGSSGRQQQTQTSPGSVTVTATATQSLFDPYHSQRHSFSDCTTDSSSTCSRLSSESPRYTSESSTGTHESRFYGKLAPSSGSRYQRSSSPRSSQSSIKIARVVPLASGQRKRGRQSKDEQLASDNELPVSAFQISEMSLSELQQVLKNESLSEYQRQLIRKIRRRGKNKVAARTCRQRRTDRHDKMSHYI

[3] = molecular target: T2, Streptokinase A (Streptococcus pyogenes serotype M1, UniProt P10520); assay: viability-normalized secreted streptokinase activity reduction – plasminogen activation absorbance, OD405, dose response (AID 1914); format: functional, Streptococcus pyogenes M1 GAS;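 further: secreted streptokinase activity via plasminogen activation per viability signal from cell pellet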
T2 sequence (P10520 whole entry): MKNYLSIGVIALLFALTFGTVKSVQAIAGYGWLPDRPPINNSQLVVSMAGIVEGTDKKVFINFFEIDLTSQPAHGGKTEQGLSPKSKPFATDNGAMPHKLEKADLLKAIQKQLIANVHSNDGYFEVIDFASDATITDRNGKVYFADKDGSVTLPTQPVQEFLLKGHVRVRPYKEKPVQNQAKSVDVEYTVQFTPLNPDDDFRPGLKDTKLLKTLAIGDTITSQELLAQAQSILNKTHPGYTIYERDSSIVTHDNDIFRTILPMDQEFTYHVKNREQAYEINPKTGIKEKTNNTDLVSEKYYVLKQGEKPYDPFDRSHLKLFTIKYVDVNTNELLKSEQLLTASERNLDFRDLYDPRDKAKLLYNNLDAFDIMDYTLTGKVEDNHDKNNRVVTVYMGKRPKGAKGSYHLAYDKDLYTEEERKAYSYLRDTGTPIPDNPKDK

[4] = test system: Streptococcus sp. 'group A'; assay: Streptococcus pyogenes SK(-)GAS viability under kanamycin – luminescence, BacTiterGlo, confirmation, counter-screen for streptokinase expression inhibitor project, dose response (AID 1900); format: functional, organism-based
[5] = test system: Streptococcus; assay: GAS UMAA2166 growth inhibition – luminescence, BacTiterGlo, counter-screen for streptokinase expression inhibitor project, dose response (AID 1915); format: functional, organism-based;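 further: potency for reduction of bacterial viability or growth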
[6] = non-specific 3'UTR reporter inhibition in Clone20-Shn3RL – cell-based, Renilla luciferase, cherry-picked, counter-screen for Shn3 inhibitor project, dose response (AID 624133); format: functional
[7] = reduction of Shn3 3'UTR-driven luciferase in osteoblasts – cell-based, Clone20 osteoblasts, firefly luciferase, cherry-picked, dose response (AID 624132); format: functional;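 further: firefly luciferase luminescence from reporter carrying the Shn3 3'UTR in osteoblasts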
[8] = molecular target: T3, Replicative DNA helicase DnaB (Mycobacterium tuberculosis, UniProt P9WMR3); assay: DnaB intein splicing inhibitors, dose response, biochemical, cell-free fluorescence (AID 449749); format: functional
T3 sequence (P9WMR3 whole entry): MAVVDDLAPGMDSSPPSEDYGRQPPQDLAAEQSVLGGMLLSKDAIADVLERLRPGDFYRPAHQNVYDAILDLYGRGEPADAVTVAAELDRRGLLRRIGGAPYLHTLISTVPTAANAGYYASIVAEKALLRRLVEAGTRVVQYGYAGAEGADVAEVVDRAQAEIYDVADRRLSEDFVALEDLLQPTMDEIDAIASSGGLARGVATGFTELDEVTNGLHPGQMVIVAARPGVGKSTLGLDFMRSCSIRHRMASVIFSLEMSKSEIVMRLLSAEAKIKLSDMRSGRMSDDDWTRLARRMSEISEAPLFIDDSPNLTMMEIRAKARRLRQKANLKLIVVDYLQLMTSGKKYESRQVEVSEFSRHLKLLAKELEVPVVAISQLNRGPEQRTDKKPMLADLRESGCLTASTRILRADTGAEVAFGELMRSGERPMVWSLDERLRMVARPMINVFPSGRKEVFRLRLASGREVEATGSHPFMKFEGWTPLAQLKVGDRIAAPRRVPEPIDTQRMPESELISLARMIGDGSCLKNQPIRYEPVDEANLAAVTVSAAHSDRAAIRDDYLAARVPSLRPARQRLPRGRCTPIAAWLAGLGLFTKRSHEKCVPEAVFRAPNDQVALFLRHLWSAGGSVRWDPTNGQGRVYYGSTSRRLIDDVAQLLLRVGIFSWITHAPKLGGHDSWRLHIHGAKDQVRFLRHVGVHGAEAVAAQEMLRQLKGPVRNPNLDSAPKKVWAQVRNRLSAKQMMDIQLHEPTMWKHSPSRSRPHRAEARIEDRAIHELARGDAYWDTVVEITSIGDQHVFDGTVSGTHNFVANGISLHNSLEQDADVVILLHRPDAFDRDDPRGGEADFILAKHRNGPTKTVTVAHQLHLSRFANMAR

[9] = molecular target: T4, Protein RecA (Mycobacterium tuberculosis, UniProt P9WHJ3); assay: Fluorescence Cell-Free Homogeneous Dose Retest to Identify Inhibitors of RecA-Intein Splicing Activity. [Related pubchem assays (depositor defined):AID2097, AID2223, AID489010, AID492950]; format: functional
T4 sequence (P9WHJ3 whole entry): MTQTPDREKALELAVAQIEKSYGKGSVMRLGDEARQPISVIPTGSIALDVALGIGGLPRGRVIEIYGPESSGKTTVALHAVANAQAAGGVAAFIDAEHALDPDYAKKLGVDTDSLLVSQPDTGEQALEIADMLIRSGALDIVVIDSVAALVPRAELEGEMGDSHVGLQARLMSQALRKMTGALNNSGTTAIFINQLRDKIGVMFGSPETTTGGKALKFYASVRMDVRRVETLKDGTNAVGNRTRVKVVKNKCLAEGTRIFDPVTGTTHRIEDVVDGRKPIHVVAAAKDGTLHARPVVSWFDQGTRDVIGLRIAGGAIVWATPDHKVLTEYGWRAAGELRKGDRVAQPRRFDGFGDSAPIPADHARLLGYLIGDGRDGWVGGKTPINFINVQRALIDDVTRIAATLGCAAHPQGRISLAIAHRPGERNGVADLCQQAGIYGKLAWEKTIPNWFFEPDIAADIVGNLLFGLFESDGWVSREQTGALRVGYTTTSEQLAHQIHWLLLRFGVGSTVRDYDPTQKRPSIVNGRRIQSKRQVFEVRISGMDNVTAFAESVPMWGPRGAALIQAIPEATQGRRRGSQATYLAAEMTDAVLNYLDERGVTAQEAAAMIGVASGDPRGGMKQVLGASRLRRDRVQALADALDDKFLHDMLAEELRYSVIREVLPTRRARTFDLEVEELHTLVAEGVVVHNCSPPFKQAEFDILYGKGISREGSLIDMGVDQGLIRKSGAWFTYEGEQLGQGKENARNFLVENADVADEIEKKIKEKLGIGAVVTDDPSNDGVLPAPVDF

[10] = test system: INS1; assay: INS-1E survival protection against cytokine death – cell-based, luminescence, retest, dose response (AID 449756); format: functional; settings: Rattus norvegicus;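 further: cell death triggered by IL-1 beta plus TNF-alpha plus IFN-gamma mixture; protective hits raise ATP signal compared with cytokine alone wells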
[11] = Luminescence Cell-Based Dose Response HTS to Identify Activators of Luciferase Translation or Activity in H4 […] Cells. [Related pubchem assays: 1829 (Project Summary), 1814 (Primary HTS)]; format: functional
[12] = test system: H4; assay: Luminescence Cell-Based Dose Response HTS to Identify Activators of 5'UTR Stem-Loop Driven Prion Protein mRNA Translation in H4 Neuroglioblastoma Cells. [Related pubchem assays: 1829 (Project Summary), 1814 (Primary HTS)]; format: functional; settings: Homo sapiens

Cc1c(C(C)(C)O)[nH]c2ccc(C(F)(F)F)cc12
CC50 [1]: 33.8 µM (active)

CC(=O)C(C)Oc1ccc2c3c(c(=O)oc2c1)CCCC3 (stereo unspecified)
CC50 [1]: 31.8 µM (active)

COc1ccc(Br)cc1CN(C)CC(O)COc1ccc(Br)cc1 (stereo unspecified)
IC50 [2]: > 100 µM (inactive)

O=C(Nc1ccc2ccccc2c1)c1ccc(NS(=O)(=O)c2ccc(Br)s2)cc1
EC50 [3]: > 150 µM (not active) | EC50 [4]: 2 µM (active) | EC50 [5]: 5.03 µM (active) | CC50 [1]: > 50 µM (active)

CC1(c2ccccc2)ON(c2ccccc2C(F)(F)F)C1=O (stereo unspecified)
CC50 [1]: 49.9 µM (active)

O=[N+]([O-])c1cccc(-c2c(-c3ccccc3)ncc3cc(F)ccc23)c1
IC50 [2]: 88.7 µM (inactive)

CCCCOc1ccc(C(=O)NC)cc1
IC50 [2]: > 100 µM (inactive)

CCOC(=O)C1CCN(C(=O)c2sc3nc(C)nc(N4CCC(C)CC4)c3c2C)CC1
AC50 [6]: 9.01 µM (active) | AC50 [7]: 5.26 µM (active)

CC1CCc2c(sc3nc(CSc4nc[nH]n4)nc(O)c23)C1 (stereo unspecified)
CC50 [1]: 24.2 µM (active)

O=C(Nc1ccc(S(=O)(=O)N2CCCCC2)cc1)C1CC(=O)N(c2ccc(Cl)cc2)C1 (stereo unspecified)
CC50 [1]: 19.9 µM (active)

Cc1n[nH]c2c1C(CCc1ccccc1)C(C#N)=C(N)O2 (stereo unspecified)
AC50 [8]: 24.9 µM (active) | EC50 [9]: 6.58 µM (active)

Cc1ccc(OCCn2cc(C#N)c3ccccc32)cc1
CC50 [1]: 28.8 µM (active)

O=C(NC1CCCC1)C(c1ccc(F)cc1)N(Cc1ccc(F)cc1)C(=O)CCl (stereo unspecified)
AC50 [8]: 4.67 µM (active) | EC50 [9]: 0.557 µM (active)

COc1ccc(-n2c(=O)c3ccccc3c3ccccc3c2=O)cc1
AC50 [8]: 10.1 µM (active) | EC50 [9]: 23.3 µM (active)

Cc1ccccc1Oc1cc(NC(=O)CCCn2nc(C)c([N+](=O)[O-])c2C)cc([N+](=O)[O-])c1
AC50 [10]: 6.96 µM (active)

COc1ccccc1N(Cc1ccccc1)S(=O)(=O)c1cccc(C(=O)Nc2ccccn2)c1
CC50 [1]: 11.6 µM (active)

COc1cccc(NC(=O)Nc2nnc(N3C(C)CCCC3C)s2)c1 (stereo unspecified)
CC50 [1]: > 50 µM (active)

Cn1cc(/C=N\NC(=O)c2cccs2)c2ccccc21
EC50 [11]: 50.3 µM (active) | EC50 [12]: 37.7 µM (active)

COc1ccc(C2=NN(c3nc(C)cc(C)n3)C(=O)C2)cc1
AC50 [8]: 4.53 µM (active) | EC50 [9]: 2.81 µM (active)

O=c1sc(/C=N/Nc2ccccc2)c(Cl)n1Cc1ccccc1
EC50 [11]: > 120 µM (not active) | EC50 [12]: 21.4 µM (active)

Cc1c(NC(=O)/C(C#N)=C/c2ccc(-c3ccc(Cl)c(Cl)c3)o2)c(=O)n(-c2ccccc2)n1C
IC50 [2]: > 100 µM (inactive) | CC50 [1]: 13.3 µM (active)

N#Cc1c(Nc2ccccc2)sc(C(=O)c2ccc(F)cc2)c1N
AC50 [10]: 20.9 µM (active)

Cc1[nH]n(C)c(=O)c1C(=O)c1c(-c2ccccc2Cl)noc1C
AC50 [8]: 6.51 µM (active) | EC50 [9]: 2.61 µM (active)

COCCn1cnnc1SCC(=O)Nc1cccc(S(=O)(=O)N2CCCCC2)c1
IC50 [2]: > 100 µM (inactive)

N#Cc1ccc(C(=O)Nc2nc(-c3cccs3)c(C(=O)C(F)(F)F)s2)cc1
AC50 [10]: 4.75 µM (active)

O=C(CCN1C(=O)/C(=C/c2cccs2)SC1=S)Nc1cccc(O)c1
AC50 [8]: 1.64 µM (active) | EC50 [9]: 125 µM (active)

C[C@@H]1CC=C[C@H]2[C@H]1C(=O)N(Cc1ccccc1)[C@H]2c1ccc(C(F)(F)F)cc1
AC50 [8]: 22.3 µM (active) | EC50 [9]: 87 µM (active)

N#Cc1cc2c(nc1SCC(=O)Nc1sc3c(c1C#N)CCC3)CCCC2
EC50 [11]: > 120 µM (not active) | EC50 [12]: 16 µM (active)

Clc1ccccc1-c1ncc(-c2ccccc2)o1
IC50 [2]: 37.3 µM (active)

Cc1ccc(NC2=NC(=O)/C(=C\c3ccc(C)s3)S2)cc1
IC50 [2]: > 100 µM (inactive)

Cc1cccc(C(C)(C)C)c1OCCN1CCCC1
AC50 [6]: 9.87 µM (active) | AC50 [7]: 34.2 µM (active)

C=CCC1CCCCC1=C(C#N)c1ccccc1 (stereo unspecified)
IC50 [2]: > 100 µM (inactive)

Cc1ccccc1C1CCCN(C(=O)c2cc(COc3c(F)cccc3F)on2)C1 (stereo unspecified)
CC50 [1]: 21.6 µM (active)

N#CC1(Nc2ccc(-c3ccc(Cl)cc3)cc2)CCCC1
IC50 [2]: 26.1 µM (active)

COc1ccc2ccc3c(c2c1)N=C[C@]1(O3)N(C)c2ccccc2C1(C)C
EC50 [3]: 3.17 µM (active) | AC50 [8]: > 380 µM (inactive) | EC50 [4]: 35.4 µM (active) | EC50 [5]: > 150 µM (not active) | EC50 [9]: 3.66 µM (active)

CCOc1ccc2cc(/C=C/C(=O)c3ccco3)c(Cl)nc2c1
CC50 [1]: 47.7 µM (active)

O=C1/C(=C/c2cccs2)CCc2ccccc21
IC50 [2]: 18.6 µM (active)

Cc1ccc2sc3ccc(NC(=O)c4ccccc4Cl)cc3c(=O)c2c1
CC50 [1]: 15.9 µM (active)

O=c1cc(C2CCNCC2)[nH][nH]1
AC50 [8]: 3.73 µM (active) | EC50 [9]: 1.41 µM (active)

O=c1c2ccccc2oc2ccc(Oc3ccccc3)cc12
IC50 [2]: 22.5 µM (active)

Reference: ChEMBL document CHEMBL1201862, “PubChem BioAssay data set” (2004)
